Measured values reported in US10639300B2, “Compositions and methods for treating nasal and paranasal mucosa diseases with nicotinic acetylcholine receptor agonists” (priority 2016, dated 2020).

Experiments:
[1] = system: patient with chronic nasal congestion; settings: aqueous solution 1.00 mg/ml with salicylic acid 0.5 mg/ml, two drops in each nostril, three or four times a day, follow-up one month later
Text: The patient also complained of frequent headaches in the forehead region.
The dose was repeated three or four times a day. […] It was felt by the clinician that the possible causative agent/s for the chronic nasal congestion may have been external environment factors such as cold, dust, air pollution, second-hand cigarette smoke and/or seasonal allergens such as pollens.

[2] = system: patient with nose bleeding and atrophy of the nasal cavity mucous membranes; settings: person, aqueous solution 2.0 mg/ml with salicylic acid 0.5 mg/ml, one to two drops, three to four times a day
Protocol: The patient was a person with a history of nose bleeding in small quantities and sensation of dryness in the nose and eyes. The patient also reported a long history of joint pain, but no other remarkable antecedents.
The treatment for patient two began with an aqueous solution of (S)-(1-methyl-2-pyrrolidinyl)-pyridine at a concentration of 2.0 mg/ml and salicylic acid at a concentration of 0.5 mg/ml at a dose of one to two drops (about 50 μL per drop) followed by forced inhalation. The dose was repeated three to four times a day.

human cancer cells = settings: experimental cultures of human cancer cells; concentration 5 mg/ml

SMILES: CN1CCC[C@H]1c1cccnc1 [(S)-(1-methyl-2-pyrrolidinyl)-pyridine]
- patient-reported improvement of symptoms (100% being what the patient considered normal) [1]: 90%
- nasal bleeding (patient report) ([2]; follow-up one month later): ceased
- sensation of dryness in the nose and eyes (patient report) ([2]; since the first week of treatment): diminished markedly
- inhibition of proliferation (human cancer cells): 95%
